Test results published in patent US20230212225A1, “PEPTIDE COMPOSTIONS AND METHODS FOR TREATING TAUOPATHIES” (AXOLTIS PHARMA, priority 2019, published 2023).
Where a SMILES comes first, the peptide text is derived from it.

How the values were obtained:
[1] = tested on: Aβ25-35-induced short-term memory deficits; experiment: Spontaneous alternation performance (Y-maze), treatment started 1 hour after Aβ25-35 injection, tested D08; format: in vivo, mice; conditions: for Y-maze % (Sc.Aβ / Vhc = 100) / Y-maze Mean, percentage of alternation: D08
[2] = tested on: Aβ25-35-induced long-term memory deficits; experiment: Step-through passive avoidance test (STPA), D09-D10; format: in vivo, mice
[3] = Preliminary in vitro conversion of NX210 in rat plasma; format: in vitro ADME
[4] = tested on: Aβ25-35-induced short-term memory deficits; experiment: Late-stage efficacy: Y-maze with treatment started at D11; format: in vivo, mice
Description: Seven days after ICV injection of Aβ25-35 peptide (D08), all animals were tested for spontaneous alternation performance in the Y-maze, an index of spatial working memory (short-term memory test). Each mouse was placed at the end of one arm and allowed to move freely through the maze during an 8 min session. An alternation is defined as entries into all three arms on consecutive occasions. The number of maximum alternations is therefore the total number of arm entries minus two and the percentage of alternation is calculated as (actual alternations / maximum alternations) x 100. This parameter includes the percentage of alternation (memory index) (Maurice et al., 1996, 1998; Meunier et al., 2006).
The efficacy of NX210 and NX218 SCO-Spondin derived peptides was therefore assessed during this late-stage physiopathology setting. Specifically, the administrations of NX210, NX218 or vehicle were started at D11 and were repeated once a day until the end of the experiment.
All animals were tested for spontaneous alternation performance in the Y-maze, an index of short-term memory (see Example 3 for method details) from D08 (i.e. pre-treatment values) and then once a week for three weeks (D15, D22, D29).

[5] = Pharmacokinetics in human healthy subjects; format: in vivo; conditions: single IV 10 mg/kg
Description: As in animals; PK study of NX210 in Human Healthy subjects was conducted following the measurement of its cyclic form NX218.

[6] = tested on: pTau (phosphorylated Tau protein); experiment: Brain biomarker assessment, hippocampus ELISA, D11; format: in vivo, mice
Description: (§1) In order to evaluate potential biological effects of NX210 or NX218 treatments on pathological biomarkers, mice from the Sc.Aβ / Vhc (n=6), Aβ25-35 / Vhc (n=6), Aβ25-35 / NX210 IP 2 mg/kg (n=5) and Aβ25-35 / NX218 IP 2 mg/kg (n=5) groups were sacrificed under anesthesia ten days after ICV injection of Aβ25-35 peptide (D11) and daily compound administrations (once a day).
(§2) For each mouse, the brain was quickly removed and dissected out on an ice-cold metal plate into 2 hemi-hippocampi, 2 hemi-frontal cortices and the rest of brain. Straight after each collection, brain samples were frozen on dry ice and stored at -80° C. After thawing, brain structures were dissociated in 50 mM Tris-150 mM NaCl buffer, pH 7.5, and sonicated for 20 sec. After centrifugation, supernatants containing proteins were used for ELISA assays according to the manufacturer’s instructions (see below). • For Aβ1-42 (amyloid-beta 1-42), use of the left hippocampus, ELISA kit from Cloud-Clone Corp., ref: CEA946Mu; batch: L190107385 • For pTau (phosphorylated Tau protein), use of the left hippocampus, ELISA kit from Fisher Scientific, ref: 10591255; batch: 187860001
(§3) For all assays, the absorbance was read at 450 nm and each sample concentration was calculated by using a specific standard curve. All samples were run in duplicate and the average of these duplicates was used for calculations.

[7] = tested on: Aβ1-42 (amyloid-beta 1-42); experiment: Brain biomarker assessment, hippocampus ELISA, D11; format: in vivo, mice
Description: as §1, §2, §3

[8] = IP 2 mg/kg every other day (1/2d)
[9] = IP 3.75 mg/kg every other day (1/2d)
[10] = once a day, NX210 0.1 mg/kg, NX218 0.1 mg/kg, DPZ 0.25 mg/kg
[11] = D08, pre-treatment value, IP 2 mg/kg once a day started at D11
[12] = D15, IP 2 mg/kg once a day started at D11
[13] = D22, IP 2 mg/kg once a day started at D11
[14] = D29, IP 2 mg/kg once a day started at D11
[15] = measured as NX218, maximum, N=3
[16] = measured as NX218, minimum, N=3
[17] = 2 mg/kg once a day for ten days
[18] = IP 2 mg/kg once a day, left hippocampus, D11

In the case of `N=C(N)NCCC[C@H](NC(=O)[C@H](CO)NC(=O)[C@H](CS)NC(=O)[C@H](CO)NC(=O)[C@H](CO)NC(=O)[C@H](Cc1c[nH]c2ccccc12)NC(=O)CNC(=O)[C@H](CO)NC(=O)[C@@H](N)Cc1c[nH]c2ccccc12)C(=O)N[C@@H](CO)C(=O)N[C@@H](CS)C(=O)NCC(=O)O` [NX210, W-S-G-W-S-S-C-S-R-S-C-G] (H-WSGWSSCSRSCG-OH; N-terminus and C-terminus assumed), the “effect on spatial short-term working memory deficits (Y-maze), in words” value ([1]; 1, 2 and 3.75 mg/kg IP, once a day or every other day) is reported as “significantly rescued”, the “Y-maze % (Sc.Aβ / Vhc = 100)” value ([1]; IP 0.1 mg/kg once a day) is reported as 60% and the “Y-maze Mean, percentage of alternation” value ([1]; IP 0.1 mg/kg once a day) is reported as 44.52%. The “Y-maze % (Sc.Aβ / Vhc = 100)” value ([1]; IP 1 mg/kg once a day) was 79%, the “Y-maze Mean, percentage of alternation” value ([1]; IP 1 mg/kg once a day) was 58.16% and the “Y-maze % (Sc.Aβ / Vhc = 100)” value [1, 8] was 100%. The “Y-maze Mean, percentage of alternation” value [1, 8] was 74.35%, the “Y-maze % (Sc.Aβ / Vhc = 100)” value ([1]; IP 2 mg/kg once a day) was 98% and the “Y-maze Mean, percentage of alternation” value ([1]; IP 2 mg/kg once a day) was 72.67%. The “Y-maze % (Sc.Aβ / Vhc = 100)” value [1, 9] was 98%, the “Y-maze Mean, percentage of alternation” value [1, 9] was 72.62% and the “Y-maze % (Sc.Aβ / Vhc = 100)” value ([1]; IP 3.75 mg/kg once a day) was 96%. The “Y-maze Mean, percentage of alternation” value ([1]; IP 3.75 mg/kg once a day) was 70.90%, the “restoration of short-term memory to Sham level (Y-maze), in words” value ([1]; NX210 at 2 and 3.75 mg/kg, NX218 at 1, 2 and 3.75 mg/kg) was “complete restoration” and the “effect on Aβ25-35-induced short-term memory deficits (Y-maze) at subactive dose, in words” value [1, 10] was “do not impede”. The “EL % (Sc.Aβ / Vhc = 100)” value ([2]; IP 0.1 mg/kg once a day) was 449%, the “EL Mean, escape latency, retention session” value (from here on “EL Mean, escape latency”) ([2]; IP 0.1 mg/kg once a day) was 89.42 s and the “STL % (Sc.Aβ / Vhc = 100)” value ([2]; IP 0.1 mg/kg once a day) was 42%. For the same compound, the “STL Mean, step-through latency, retention session” value (from here on “STL Mean, step-through latency”) ([2]; IP 0.1 mg/kg once a day) was 118.92 s, the “EL % (Sc.Aβ / Vhc = 100)” value ([2]; IP 1 mg/kg once a day) was 267% and the “EL Mean, escape latency” value ([2]; IP 1 mg/kg once a day) was 53.08 s. The “STL % (Sc.Aβ / Vhc = 100)” value ([2]; IP 1 mg/kg once a day) was 63%, the “STL Mean, step-through latency” value ([2]; IP 1 mg/kg once a day) was 177.92 s and the “EL % (Sc.Aβ / Vhc = 100)” value [2, 8] was 110%. For the same compound, the “EL Mean, escape latency” value [2, 8] was 22.00 s, the “STL % (Sc.Aβ / Vhc = 100)” value [2, 8] was 93% and the “STL Mean, step-through latency” value [2, 8] was 263.33 s. For the same compound, the “EL % (Sc.Aβ / Vhc = 100)” value ([2]; IP 2 mg/kg once a day) was 156%, the “EL Mean, escape latency” value ([2]; IP 2 mg/kg once a day) was 31.17 s and the “STL % (Sc.Aβ / Vhc = 100)” value ([2]; IP 2 mg/kg once a day) was 88%. For the same compound, the “STL Mean, step-through latency” value ([2]; IP 2 mg/kg once a day) was 248.33 s, the “EL % (Sc.Aβ / Vhc = 100)” value [2, 9] was 119% and the “EL Mean, escape latency” value [2, 9] was 23.75 s. For the same compound, the “STL % (Sc.Aβ / Vhc = 100)” value [2, 9] was 94%, the “STL Mean, step-through latency” value [2, 9] was 264.75 s and the “EL % (Sc.Aβ / Vhc = 100)” value ([2]; IP 3.75 mg/kg once a day) was 139%. For the same compound, the “EL Mean, escape latency” value ([2]; IP 3.75 mg/kg once a day) was 27.67 s, the “STL % (Sc.Aβ / Vhc = 100)” value ([2]; IP 3.75 mg/kg once a day) was 90% and the “STL Mean, step-through latency” value ([2]; IP 3.75 mg/kg once a day) was 255.50 s. The “effect on contextual long-term memory deficits (STL and EL), in words” value ([2]; NX210 2 and 3.75 mg/kg, NX218 1, 2 and 3.75 mg/kg, once a day or every other day) was “fully rescued”, the “effect on contextual long-term memory deficits (STL and EL) at subactive dose, in words” value [2, 10] was “do not impede” and the “conversion by oxidation in rat plasma, in words” value [3] was “rapidly converted into NX218”. The “Y-maze (D08) % (Sc.Aβ / D11 vhc = 100)” value [4, 11] was 55%, the “Y-maze (D08) Mean, percentage of alternation” value [4, 11] was 39.17% and the “effect on short-term working memory deficits at D15, in words” value ([4]; D15, five daily administrations, 2 mg/kg started at D11) was “tendency to rescue”. The “Y-maze (D15) % (Sc.Aβ / D11 vhc = 100)” value [4, 12] was 71%, the “Y-maze (D15) Mean, percentage of alternation” value [4, 12] was 55.55% and the “effect on working memory deficits at D22, in words” value ([4]; D22, 12 day-treatment, 2 mg/kg started at D11) was “significantly rescued”. For the same compound, the “Y-maze (D22) % (Sc.Aβ / D11 vhc = 100)” value [4, 13] was 82%, the “Y-maze (D22) Mean, percentage of alternation” value [4, 13] was 60.08% and the “effect on memory deficits at D29, in words” value ([4]; D29, 19 day-treatment, 2 mg/kg started at D11) was “fully restored”. For the same compound, the “Y-maze (D29) % (compared to Sham group)” value [4, 14] was 97%, the “Y-maze (D29) Mean, percentage of alternation” value [4, 14] was 74.73% and the “Kel (clearance rate constant), AM” value ([5]; measured as NX218, arithmetic mean, N=3) was 0.0348 I/min. For the same compound, the “Kel (clearance rate constant), GM” value ([5]; measured as NX218, geometric mean, N=3) was 0.0347 I/min, the “AUClast, Max” value ([5]; measured as NX218, maximum) was 7850 ng·min/mL and the “Cmax, Max” value ([5]; measured as NX218, maximum) was 1040 ng/mL. For the same compound, the “Tmax, Max” value ([5]; measured as NX218, maximum) was 12.00 min, the “AUC∞, Max” value [5, 15] was 7920 ng·min/mL and the “Kel (clearance rate constant), Max” value [5, 15] was 0.0372 I/min. The “t½, Max” value [5, 15] was 22.5 min, the “Kel (clearance rate constant), Median” value ([5]; measured as NX218, median, N=3) was 0.0365 I/min and the “AUClast, Min” value ([5]; measured as NX218, minimum) was 1470 ng·min/mL. For the same compound, the “Cmax, Min” value ([5]; measured as NX218, minimum) was 185 ng/mL, the “Tmax” value ([5]; measured as NX218, minimum) was 6.00 min and the “AUC∞, Min” value [5, 16] was 2800 ng·min/mL. The “Kel (clearance rate constant), Min” value [5, 16] was 0.0308 I/min, the “t½” value [5, 16] was 18.6 min and the “effect on brain pTau vs Aβ25-35 / Vhc group, in words” value [6, 17] was “significantly decreased”. The “pTau %, percentage of the control group (Sc.Aβ / Vhc)” value [6, 18] was 151%, the “pTau Mean” value [6, 18] was 90.21 and the “effect on brain Aβ1-42 vs Aβ25-35 / Vhc group, in words” value [7, 17] was “significantly decreased”. For the same compound, the “Aβ1-42 %, percentage of the control group (Sc.Aβ / Vhc)” value [7, 18] was 107% and the “Aβ1-42 Mean” value [7, 18] was 24.25.
